# Test results as given in US20220235073A1, “ARTEMISININ-DERIVATIVE N-HETEROCYCLIC CARBENE GOLD(I) HYBRID COMPLEXES” (CENTRE NATIONAL DE LA RECHERCHE SCIENTIFIQUE, priority 2019, published 2022).
# What was measured:
# [1] = tested on: PC-3 human prostate cancer cells; assay: Cell viability MTT assay, PC-3; type: cell-based; details: for GI50: 72 h, MTT assay
# [2] = tested on: NIH3T3 murine fibroblast cells; assay: Cell viability MTT assay, NIH3T3; type: cell-based; details: for GI50: 72 h, MTT assay; for Selectivity index NIH3T3: SI = GI50 (non-cancer cell line NIH3T3)/GI50 (cancer cell line PC-3)
# Experimental: (§1) HepG-2 human liver cancer cells were cultured in EMEM containing 10% of FBS, 1% of nonessential amino acids, 1 mM of Na-pyruvate, 1% of PenStrep antibiotics and 600 μg/mL of Geneticin. A549 human lung carcinoma cells, T24 human bladder carcinoma cells, MCF-7 human breast adenocarcinoma cells, U-2OS human osteosarcoma and NIH3T3 murine fibroblast cells were cultured in DMEM medium containing 10% fetal bovine serum and 1% antibiotics at 37° C. in 5% CO2 humidified incubators. MC3T3 mouse osteoblast cells were cultured in MEM medium containing 10% fetal bovine serum and 1% antibiotics at 37° C. in 5% CO2 humidified incubators. RWPE-1 human prostate normal cells were cultured in K-SFM medium containing 0.05 mg/ml bovine pituitary extract (BPE) and 5 ng/ml epidermal growth factor (EGF) at 37° C. in 5% CO2 humidified incubators. The MTT reagent (3-(4,5-dimethylthiazol-2-yl)-2,5-diphenyltetrazolium bromide) was used to determine cell death as originally described by Mosmaneland modified by Cuvillier et al.^[6] Briefly, cells were seeded 5,000 to 10,000 cells/well in 24-well plates depending on the cell type and allowed to attach overnight. All of the complexes were dissolved in DMSO. The concentration of the complexes was calculated according to the elemental composition of the complexes determined by the elemental analyses. Media in the presence of the tested complexes were added and serially diluted to various concentrations (from 5 μM to 0.01 μM). Next to these concentrations, for DHA 50, 20 and 10 μM and for the cationic bisNHC gold(I) complex 3 0.001 μM have been used. […] After 72 h of treatment, cells were incubated at 37° C. and 5% CO2 with 25 μL MTT solution (5 mg/mL; Sigma-Aldrich) in 24-well plates for approximately 3 to 4 h. After solubilization with 500 μL of lysis buffer (DMSO), formazan was quantified by spectrophotometry with a microplate reader at 570 nm absorbance. […] All the results were calculated from data obtained in three independent experiments.
# [3] = tested on: RWPE-1 human prostate normal cells; assay: Cell viability MTT assay, RWPE-1; type: cell-based; details: for GI50: 72 h, MTT assay; for Selectivity index RWPE-1: SI = GI50 (RWPE-1)/GI50 (PC-3)
# Experimental: as §1
# [4] = tested on: MC3T3 mouse osteoblast cells; assay: Cell viability MTT assay, MC3T3; type: cell-based
# Experimental: (§2) PC-3 human prostate cancer cells, and LAMA chronic myeloid leukemia were cultured in RPMI 1640 containing 10% fetal bovine serum and 1% antibiotics (100 U/mL penicillin and 100 μg/mL streotimycin) at 37° C. in 5% CO2 humidified incubators. HL60 […] were cultured in RPMI 1640 containing 15% fetal bovine serum and 1% antibiotics (100 U/mL penicillin and 100 μg/mL streotimycin) at 37° C. in 5% CO2 humidified incubators. HepG-2 human liver cancer cells were cultured in EMEM containing 10% of FBS, 1% of nonessential amino acids, 1 mM of Na-pyruvate, 1% of PenStrep antibiotics and 600 μg/mL of Geneticin. A549 human lung carcinoma cells, T24 human bladder carcinoma cells, MCF-7 human breast adenocarcinoma cells, U-2OS human osteosarcoma and NIH3T3 murine fibroblast cells were cultured in DMEM medium containing 10% fetal bovine serum and 1% antibiotics at 37° C. in 5% CO2 humidified incubators. MC3T3 mouse osteoblast cells were cultured in MEM medium containing 10% fetal bovine serum and 1% antibiotics at 37° C. in 5% CO2 humidified incubators. RWPE-1 human prostate normal cells were cultured in K-SFM medium containing 0.05 mg/ml bovine pituitary extract (BPE) and 5 ng/ml epidermal growth factor (EGF) at 37° C. in 5% CO2 humidified incubators. The MTT reagent (3-(4,5-dimethylthiazol-2-yl)-2,5-diphenyltetrazolium bromide) was used to determine cell death as originally described by Mosmaneland modified by Cuvillier et al.^[6] Briefly, cells were seeded 5,000 to 10,000 cells/well in 24-well plates depending on the cell type and allowed to attach overnight. All of the complexes were dissolved in DMSO. The concentration of the complexes was calculated according to the elemental composition of the complexes determined by the elemental analyses. Media in the presence of the tested complexes were added and serially diluted to various concentrations (from 5 μM to 0.01 μM). Next to these concentrations, for DHA 50, 20 and 10 μM and for the cationic bisNHC gold(I) complex 3 0.001 μM have been used. […] After 72 h of treatment, cells were incubated at 37° C. and 5% CO2 with 25 μL MTT solution (5 mg/mL; Sigma-Aldrich) in 24-well plates for approximately 3 to 4 h. After solubilization with 500 μL of lysis buffer (DMSO), formazan was quantified by spectrophotometry with a microplate reader at 570 nm absorbance. The GI50 values corresponding to the concentration that caused 50% inhibition of cell proliferation were calculated from dose-response curves obtained by nonlinear regression analysis (Prism 8, Graphpad Software). All the results were calculated from data obtained in three independent experiments.
# [5] = tested on: A549 human lung carcinoma cells; assay: Cell viability MTT assay, A549; type: cell-based
# Experimental: as §2
# [6] = tested on: MCF-7 human breast adenocarcinoma cells; assay: Cell viability MTT assay, MCF-7; type: cell-based
# Experimental: as §2
# [7] = tested on: T24 human bladder carcinoma cells; assay: Cell viability MTT assay, T24; type: cell-based
# Experimental: as §2
# U-2OS human osteosarcoma = assay: Cell viability MTT assay, U-2OS; type: cell-based
# Experimental: as §2
# [8] = tested on: HepG-2 human liver cancer cells; assay: Cell viability MTT assay, HepG-2; type: cell-based; details: 72 h
# Experimental: (§3) PC-3 human prostate cancer cells, and LAMA chronic myeloid leukemia were cultured in RPMI 1640 containing 10% fetal bovine serum and 1% antibiotics (100 U/mL penicillin and 100 μg/mL streotimycin) at 37° C. in 5% CO2 humidified incubators. HL60 […] were cultured in RPMI 1640 containing 15% fetal bovine serum and 1% antibiotics (100 U/mL penicillin and 100 μg/mL streotimycin) at 37° C. in 5% CO2 humidified incubators. HepG-2 human liver cancer cells were cultured in EMEM containing 10% of FBS, 1% of nonessential amino acids, 1 mM of Na-pyruvate, 1% of PenStrep antibiotics and 600 μg/mL of Geneticin. A549 human lung carcinoma cells, T24 human bladder carcinoma cells, MCF-7 human breast adenocarcinoma cells, U-2OS human osteosarcoma and NIH3T3 murine fibroblast cells were cultured in DMEM medium containing 10% fetal bovine serum and 1% antibiotics at 37° C. in 5% CO2 humidified incubators. MC3T3 mouse osteoblast cells were cultured in MEM medium containing 10% fetal bovine serum and 1% antibiotics at 37° C. in 5% CO2 humidified incubators. RWPE-1 human prostate normal cells were cultured in K-SFM medium containing 0.05 mg/ml bovine pituitary extract (BPE) and 5 ng/ml epidermal growth factor (EGF) at 37° C. in 5% CO2 humidified incubators. The MTT reagent (3-(4,5-dimethylthiazol-2-yl)-2,5-diphenyltetrazolium bromide) was used to determine cell death as originally described by Mosmaneland modified by Cuvillier et al.^[6] Briefly, cells were seeded 5,000 to 10,000 cells/well in 24-well plates depending on the cell type and allowed to attach overnight. All of the complexes were dissolved in DMSO. The concentration of the complexes was calculated according to the elemental composition of the complexes determined by the elemental analyses. […] After solubilization with 500 μL of lysis buffer (DMSO), formazan was quantified by spectrophotometry with a microplate reader at 570 nm absorbance. […] All the results were calculated from data obtained in three independent experiments.
# [9] = tested on: LAMA chronic myeloid leukemia; assay: Cell viability MTT assay, LAMA; type: cell-based, human
# Experimental: as §2
# [10] = tested on: HL60 (acute myeloid leukemia); assay: Cell viability MTT assay, HL60; type: cell-based
# Experimental: as §2
# [11] = tested on: Non tumoral cell models (MC3-T3, NIH3T3, RWPE1); assay: MTT assay, mean over non tumoral cell models; type: cell-based; details: mean of MC3-T3, NIH3T3, RWPE1
# Experimental: as §3
# Tumor cell models = assay: MTT assay, panel of tumor cell models; type: cell-based, human; details: mean of PC-3, A549, U2OS, T24, MCF-7, LAMA, HL60
# Experimental: as §3
# [12] = tested on: NF-κB transcription factor induced by TNFalpha; assay: NF-kB transcriptional activity, NF-kB Reporter (Luc)-A549 stable cell line; type: cell-based, human; details: NF-kB Reporter A549 cells, 1 ng/ml TNFα, 7 hours; read-out: IC50, inhibition of NF-κB transcription factor induced by TNFalpha
# Experimental: The NF-kB Reporter (Luc)—A549 Stable Cell Line was used to quantify the inhibitory effects of the indicated doses of the molecules of the invention on transcriptional activity of NF-kB activated by 1 ng/ml TNFα (7 hours of treatment).
# Luminescence was read using a luminometer and readings were normalized to wells that only contain media to obtain the Relative Luminescence Units (RLUs).
# 9. NF-kB Transcriptional Activity
# Nrf2 = assay: NRF2 transcriptional activity, ARE Reporter Hep G2 cell line; type: cell-based, human; details: ARE Reporter Hep G2 cells, 16 hours, any dose
# Experimental: The ARE Reporter Hep G2 cell line containing a firefly luciferase gene under the control of ARE stably integrated into Hep G2 cells was used to quantify NRF2 transcriptional activity after 16 hours of treatment with the indicated doses of the different complexes. The results are shown as fold induction of ARE luciferase reporter expression. Dashed line indicates a fold induction of 1 (values >1 mean activation and values <1 mean inhibition).
# ARE-reporter-HepG-2 cells were harvested from culture in Growth Medium 1K and they were seeded at a concentration of 40,000 cells/well into white clear-bottom 96-well microplate in 45 μL of Growth Medium 1K without Geneticin. Cells were allowed to attach overnight and then treated with different concentrations of complex 2a (from 0.01 μM to 20 μM), auranofin (from 0.01 μM to 20 μM) or DHA (from 0.01 μM to 3, 5, 10, 20 and 50 μM), and complex (from 0.01 μM to 20 μM). After incubation at 37° C. and 5% CO2 for 16 hours, ONE-Step luciferase assay reagent (100 μL) was added and rock at room temperature for over 15 minutes. Then the luminescence of each well was determined by CLARIOstar microplate reader to quantify induction of ARE. Three independent experiments were performed as biological triplicates. The results are in FIG. 4.
# [13] = ratio of IC50, tumoral versus non tumoral cells of same tissue
molecule,measurement,setting,value
3′-methyl-1′-[10β-(20-propoxy)dihydroartemisin]1H-imidazol-3-ium bromide [Compound 1a],GI50,[1],> 20000 nM
same,GI50,[2],> 20000 nM
same,GI50,[3],> 20000 nM
3′-methyl-1′-[10β-(21-butoxy)dihydroartemisin]1H-imidazol-3-ium bromide [Compound 1b],GI50,[1],> 20000 nM
same,GI50,[2],> 20000 nM
same,GI50,[3],> 20000 nM
3′-methyl-1′-[10β-(22-pentoxy)dihydroartemisin]1H-imidazol-3-ium bromide [Compound 1c],GI50,[1],> 20000 nM
same,GI50,[2],> 20000 nM
same,GI50,[3],3740 nM
C[C@@H]1CCC2[C@@H](C)[C@@H](OCCCn3cc[n+](C)[c]3[Au-][c]3n(CCCO[C@H]4O[C@@H]5O[C@]6(C)CCC7[C@H](C)CCC([C@H]4C)[C@]75OO6)cc[n+]3C)O[C@@H]3O[C@]4(C)CCC1[C@@]23OO4.O=[N+]([O-])[O-] (some centres unmarked) [Compound 2a],GI50,[1],70 nM
same,IC50,"[1]; Table 3, tumor cell model",70 nM
same,GI50,[2],1130 nM
same,Selectivity index NIH3T3,[2],16.1
same,IC50,"[2]; Table 3, non tumoral cell model, read-out: IC50 NIH3T3 (fibroblasts)",1130 nM
same,GI50,"[4]; 72 h, MTT assay",1620 nM
same,Selectivity index MC3T3,[4]; SI = GI50 (MC3T3)/GI50 (PC-3),23.1
same,IC50,"[4]; Table 3, non tumoral cell model, read-out: IC50 MC3-T3 (osteoblasts)",1620 nM
same,Specificity Bone: MC3-T3 (normal immortalized)/U2OS (tumoral),[4]; [13],13.3
same,GI50,[3],480 nM
same,Selectivity index RWPE-1,[3],6.9
same,IC50,"[3]; Table 3, non tumoral cell model, read-out: IC50 RWPE1 (prostatic epithelial cells)",480 nM
same,Specificity Prostate: RWPE1 (normal immortalized)/PC-3 (tumoral),[3]; [13],6.9
same,"SI PC-3/RPWE-1 value, times higher than Auranofin",[3]; ratio of SI,69 times
same,"SI PC-3/RPWE-1 value, times higher than complex 3",[3]; ratio of SI,35 times
same,GI50,"[5]; 72 h, MTT assay",110 nM
same,IC50,"[5]; Table 3, tumor cell model",115 nM
same,GI50,"[6]; 72 h, MTT assay",90 nM
same,IC50,"[6]; Table 3, tumor cell model",89 nM
same,GI50,"[7]; 72 h, MTT assay",170 nM
same,IC50,"[7]; Table 3, tumor cell model",175 nM
same,GI50,"U-2OS human osteosarcoma; 72 h, MTT assay, read-out: GI50 U2OS",120 nM
same,IC50,"U-2OS human osteosarcoma; Table 3, tumor cell model, read-out: IC50 U2OS (bone tumor)",122 nM
same,GI50,[8],2430 nM
same,GI50,"[9]; 72 h, MTT assay",80 nM
same,IC50,"[9]; Table 3, tumor cell model",79 nM
same,GI50,"[10]; 72 h, MTT assay",22 nM
same,IC50,"[10]; Table 3, tumor cell model",22 nM
same,IC50,[11],1080 nM
same,IC50,Tumor cell models,96 nM
same,IC50,[12],~615 nM
C[C@@H]1CCC2[C@@H](C)[C@@H](OCCCCn3cc[n+](C)[c]3[Au-][c]3n(CCCCO[C@H]4O[C@@H]5O[C@]6(C)CCC7[C@H](C)CCC([C@H]4C)[C@]75OO6)cc[n+]3C)O[C@@H]3O[C@]4(C)CCC1[C@@]23OO4.[Cl-] (some centres unmarked) [Compound 2b],GI50,[1],42 nM
same,GI50,[2],700 nM
same,Selectivity index NIH3T3,[2],16.7
same,GI50,[3],110 nM
same,Selectivity index RWPE-1,[3],2.6
CN1C=CN(c2ccc3ccccc3n2)[CH]1[Au-][CH]1N(C)C=CN1c1ccc2ccccc2n1 (centres unmarked) [Compound 3],Effect on activity of Nrf2,Nrf2,activate
C[C@@H]1CC[C@H]2[C@@H](C)C(=O)O[C@@H]3O[C@@]4(C)CC[C@@H]1[C@]32OO4 [artemisinin],Effect on activity of Nrf2,Nrf2,activate
